Measured values as given in the SangsterLogP compilation.

`CCCCCCCCCCCCCCCCCCCC(=O)O` showed a logP of 9.29. Molecule `CCCCCCCCCCCCCCCCCC(=O)O` has a logP of 8.23. In the case of `CCCCCCCCCCCCCC(=O)O`, the logP is reported as 6.11. For `CCCCC/C=C\C/C=C\CCCCCCCC(=O)O`, the logP was 7.05. `CCCCCC(=O)O` gave a logP of 1.87. For `CCCCCCCCCCCCCCCC(=O)O`, the logP was 7.17. For `CC/C=C\C/C=C\C/C=C\CCCCCCCC(=O)O`, the logP was 6.46. In the case of `CC(C)OC(=O)c1ccccc1`, the logP is reported as 3.09. With `CCCCCCC/C=C\CCCCCCC(=O)O` the logP was 6.58. Molecule `CCCCCCCC/C=C\CCCCCCCC(=O)O` has a logP of 7.64. With `CCCCC/C=C\C/C=C\C/C=C\C/C=C\CCCC(=O)O` the logP was 6.98.
